Legend:
VDR [1] = target: T1, VDR (Homo sapiens, UniProt P11473); assay: VDRE-luciferase reporter assay in Jurkat cells
T1 sequence (P11473 1-427): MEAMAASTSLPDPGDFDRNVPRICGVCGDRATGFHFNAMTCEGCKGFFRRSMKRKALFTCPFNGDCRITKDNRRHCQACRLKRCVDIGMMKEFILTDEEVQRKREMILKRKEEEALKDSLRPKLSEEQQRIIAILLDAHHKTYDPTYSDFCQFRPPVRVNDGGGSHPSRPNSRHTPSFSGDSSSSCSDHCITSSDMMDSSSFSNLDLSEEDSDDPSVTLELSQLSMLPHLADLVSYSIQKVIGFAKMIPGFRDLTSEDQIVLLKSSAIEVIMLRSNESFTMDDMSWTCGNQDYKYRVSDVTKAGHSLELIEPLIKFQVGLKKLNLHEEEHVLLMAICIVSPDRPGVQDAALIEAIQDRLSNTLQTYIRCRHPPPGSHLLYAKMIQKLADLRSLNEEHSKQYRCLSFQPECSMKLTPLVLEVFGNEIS

CYP24A1 gene expression = assay: RT-PCR analysis of CYP24A1 expression in HaCaT cells; type: cell-based; settings: 100 nM, 24 h treatment; for fold induction at 0.1 µM: Homo sapiens, read-out: relative mRNA level for CYP24A1 versus vehicle control
Experimental: Figure 7 20S(OH)D3 analogs upregulate the expression of CYP24A1 encoding the vitamin D catabolic enzyme, CYP24A1, with varying efficiencies. […] The mRNA was isolated and the RT-PCR was performed using specific primers for the CYP24A1 gene (see Methods). Data are presented as mean ± SE (n = 3). *p < 0.05, **p < 0.01 and ***p < 0.001 compared with the control.
HaCaT cells were purchased from Thermo Fisher Scientific (Waltham, MA, USA) and were cultured as for the VDRE reporter assay. The RNA from HaCaT keratinocytes treated with secosteroids or from DMSO controls was isolated using the Absolutely RNA Miniprep Kit (Stratagene, La Jolla, CA, USA). Reverse transcription (100 ng RNA/reaction) was performed with the Transcriptor First Strand cDNA Synthesis Kit (Roche Inc., Mannheim, Germany). Real-time PCR was performed using cDNA diluted 10-fold in sterile water and a SYBR Green PCR Master Mix. The primers for both forward and reverse strands for CYP24A1 were designed based on the mouse and rat sequences using Primer Quest software ([…], San Jose, CA, USA). Reactions (in triplicate) were performed at 50 °C for 2 min, 95 °C for 10 min and then 40 cycles of 95 °C for 15 s, 60 °C for 30 s and 72 °C for 30 s. Data were collected and analyzed on a Roche Light Cycler 480. The amount of the final amplified product for each gene was compared and normalized to the amount of β-actin product as a housekeeping gene using a comparative Ct method.

IFNγ production = assay: IFNγ inhibition assay in anti-CD3 activated splenocytes; settings: for activity at 0.1 µM: Mus musculus, Splenocyte, 72 h, read-out: IFNγ (ratio ± SD)
VDR [2] = target: T1, VDR; assay: VDRE-luciferase reporter assay in Caco-2 cells
VDR [3] = target: T1, VDR; assay: VDRE-luciferase reporter assay in HaCaT cells
[4] = low dose of 0.1 µg/kg; cited from earlier work
mouse CYP27B1 = target: T2, mouse CYP27B1 (Mus musculus, UniProt O35084); assay: Metabolism (1α-hydroxylation) of analogs by mouse CYP27B1; type: in vitro ADME; settings: 0.018 mol/mol phospholipid, 0.8 µM mouse CYP27B1, 20 min, 37 °C
T2 construct: made in house; host or cells: E. coli
T2 sequence (O35084 1-507): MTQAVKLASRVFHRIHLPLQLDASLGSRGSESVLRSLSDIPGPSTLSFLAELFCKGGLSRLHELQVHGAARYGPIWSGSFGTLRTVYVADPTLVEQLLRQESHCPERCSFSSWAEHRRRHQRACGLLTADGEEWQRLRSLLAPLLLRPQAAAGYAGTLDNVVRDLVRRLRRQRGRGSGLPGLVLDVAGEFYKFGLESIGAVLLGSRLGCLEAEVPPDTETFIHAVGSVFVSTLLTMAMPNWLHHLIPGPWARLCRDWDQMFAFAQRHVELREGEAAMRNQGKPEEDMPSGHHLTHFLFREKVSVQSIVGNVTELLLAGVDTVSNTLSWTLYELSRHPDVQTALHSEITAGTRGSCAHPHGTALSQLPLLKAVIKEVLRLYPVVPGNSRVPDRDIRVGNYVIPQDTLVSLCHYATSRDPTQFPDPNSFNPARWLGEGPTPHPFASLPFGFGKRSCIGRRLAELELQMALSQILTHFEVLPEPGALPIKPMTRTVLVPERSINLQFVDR
Experimental: In order to make the 1α-OH derivatives of the 20S(OH)D3 analogs enzymatically, and to assess their likely capacity to be 1α-hydroxylated in vivo, the ability of mouse CYP27B1 to hydroxylate these metabolites was examined. 25(OH)D3, the major natural substrate for CYP27B1[2],[30], was included for comparison. The 20S(OH)D3 analogs were incorporated into phospholipid vesicles and incubated with CYP27B1, then the extent of their metabolism was determined by HPLC (Table 2). All analogs tested except 33 were metabolized by CYP27B1. In each case only a single metabolite was produced, assumed to be the 1α-OH derivative based on the known high specificity of the enzyme for the 1α-position[24],[30],[31]. […] Metabolism of 4 was almost twice that of 20S(OH)D3 and metabolism of 23 almost three fold. Thus, the modifications to C24 and/or C25 seen in 13, 4 and 23 enhanced their ability to be metabolized by CYP27B1. […] In contrast, the introduction of an amide linkage into the side chain, as in 33, prevented its hydroxylation by CYP27B1.
Rat CYP24A1, mouse CYP27B1 and adrenodoxin and human adrenodoxin reductase were expressed in E. coli and purified as described before[28],[30],[35]. To test metabolism of each analog, they were incorporated into phospholipid vesicles made from dioleoyl phosphatidylcholine and cardiolipin by sonication, as before[24],[28]. The substrates in vesicles (510 µM phospholipid) were incubated at 37 °C with either CYP24A1 (0.14 µM) or CYP27B1 (0.8 µM) in a reconstituted system containing adrenodoxin (15 µM) and adrenodoxin reductase (0.4 µM). Samples from incubations with CYP24A1 were extracted with dichloromethane and analysed by HPLC using a 25 cm Grace Alltima C18 column, as before[27],[28]. Products (except 33) were separated using an acetonitrile on water gradient (45% to 100% for 20 min then 100% acetonitrile for 40 min at a flow rate of 0.5 mL/min). For the more polar 33, the acetonitrile gradient was 30% to 100% acetonitrile for 30 min then 100% acetonitrile for 20 min, at 0.5 mL/min. Products from incubations with CYP27B1 were similarly extracted with dichloromethane and analyzed by reverse phase HPLC using a 15 cm Grace Smart C18 column and an acetonitrile in water gradient (10 min 45% to 100% acetonitrile then 20 min at 100% acetonitrile, at 0.5 mL/min).

rat CYP24A1 = target: T3, rat CYP24A1 (Rattus norvegicus, UniProt Q09128); assay: Kinetics of metabolism of analogs in phospholipid vesicles by rat CYP24A1; type: in vitro ADME; settings: for Km: rat CYP24A1 0.14 µM, phospholipid vesicles, 1 min incubation, ± SE from curve fit
T3 construct: made in house; host or cells: E. coli
T3 sequence (Q09128 36-514): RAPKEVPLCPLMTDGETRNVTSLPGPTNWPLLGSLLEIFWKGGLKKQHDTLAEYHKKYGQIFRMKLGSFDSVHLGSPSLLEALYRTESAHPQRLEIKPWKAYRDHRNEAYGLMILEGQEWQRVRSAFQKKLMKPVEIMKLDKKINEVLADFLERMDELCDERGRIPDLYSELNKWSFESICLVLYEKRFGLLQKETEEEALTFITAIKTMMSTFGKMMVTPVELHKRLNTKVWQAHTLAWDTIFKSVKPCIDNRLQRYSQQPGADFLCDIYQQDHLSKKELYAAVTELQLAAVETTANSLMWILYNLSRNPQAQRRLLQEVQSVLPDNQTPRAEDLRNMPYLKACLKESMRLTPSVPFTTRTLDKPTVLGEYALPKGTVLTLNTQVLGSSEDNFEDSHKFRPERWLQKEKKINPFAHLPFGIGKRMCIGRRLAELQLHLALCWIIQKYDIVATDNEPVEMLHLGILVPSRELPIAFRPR
Experimental: An incubation time of 1 min was chosen to obtain the initial rate based on the time courses (Fig. 6) and previous studies[28],[29].
To test metabolism of each analog, they were incorporated into phospholipid vesicles made from dioleoyl phosphatidylcholine and cardiolipin by sonication, as before[24],[28]. […] Samples from incubations with CYP24A1 were extracted with dichloromethane and analysed by HPLC using a 25 cm Grace Alltima C18 column, as before[27],[28]. […] For the more polar 33, the acetonitrile gradient was 30% to 100% acetonitrile for 30 min then 100% acetonitrile for 20 min, at 0.5 mL/min.

SMILES	Product (% total secosteroids) (mouse CYP27B1)	EC50 (VDR [1]) [nM]	fold induction at 0.1 µM (CYP24A1 gene expression)	activity at 0.1 µM (IFNγ production) [%]	EC50 (VDR [2]) [nM]	EC50 (VDR [3]) [nM]	Km (rat CYP24A1) [mmol/mol PL]	further results
C=C1/C(=C\C=C2/CCC[C@]3(C)[C@@H]([C@H](C)OCCC(C)(C)O)CC[C@@H]23)C[C@@H](O)C[C@@H]1O [22-Oxa, reference compound]	–	–	–	–	–	–	–	EC50 (VDR [1]; read-out: VDRE stimulation (EC50 ± SD, nM) Jurkat, Jurkat cells, 24 h, NS: no significance): 2.9 ± 0.3 nM; relative mRNA level for CYP24A1 versus vehicle control (CYP24A1 gene expression): 77.5 fold; decrease of IFNγ production level (IFNγ production; 100 nM): 51%; IFNγ (ratio ± SD) (IFNγ production; ratio to control (1.000), 100 nM, mouse splenocytes, anti-CD3, 72 h): 0.487 ± 0.017; EC50 (VDR [2]; read-out: VDRE stimulation (EC50 ± SD, nM) Caco-2, Caco-2 cells, 24 h, NS: no significance): 42.5 ± 1.6 nM; EC50 (VDR [3]; read-out: VDRE stimulation (EC50 ± SD, nM) HaCaT, HaCaT cells, 24 h, NS: no significance): 40.1 ± 1.5 nM
C=C1/C(=C\C=C2/CCC[C@]3(C)[C@@H]([C@H](C)CCCC(C)(C)O)CC[C@@H]23)C[C@@H](O)C[C@@H]1O [1,25(OH)2D3, 1α,25-dihydroxyvitamin D3, reference compound]	–	–	–	–	–	–	–	calcemic effect [4]: substantial calcemic effect; decrease of IFNγ production level (IFNγ production; 100 nM): 60%
C=C1CC[C@H](O)C/C1=C/C=C1\CCC[C@]2(C)[C@@H]([C@H](C)CCCC(C)(C)O)CC[C@@H]12 [25(OH)D3, 25-hydroxyvitamin D3, reference compound]	86.0	–	–	–	–	–	–	–
C=C1/C(=C\C=C2/CCC[C@@]3(C)[C@H]2CC[C@@H]3[C@@](C)(O)CCC=C(C)C)C[C@@H](O)C[C@@H]1O [compound 5]	–	237 ± 5.5	149	38.1 ± 1.7	182 ± 6.1	198 ± 8.1	–	–
C=C1CC[C@H](O)C/C1=C/C=C1\CCC[C@@]2(C)[C@H]1CC[C@@H]2[C@@](C)(O)CCC=C(C)C [compound 4]	40.6	439 ± 25.7	32.4	83.2 ± 2.3	580 ± 19.2	460 ± 36.5	2.0 ± 1.7	kcat, fold lower than for 1,25(OH)2D3 (rat CYP24A1; rat CYP24A1): approximately 4 fold
C=C1/C(=C\C=C2/CCC[C@@]3(C)[C@H]2CC[C@@H]3[C@@](C)(O)CCOC(C)C)C[C@@H](O)C[C@@H]1O [compound 14]	–	248 ± 5	2	62.8 ± 0.8	188 ± 1.9	226 ± 3.5	–	–
C=C1/C(=C\C=C2/CCC[C@@]3(C)[C@H]2CC[C@@H]3[C@@](C)(O)CCC(F)(F)C(C)C)C[C@@H](O)C[C@@H]1O [compound 24]	–	305 ± 4.5	2.3	56 ± 1	236 ± 4.1	254 ± 7.9	–	–
C=C1CC[C@H](O)C/C1=C/C=C1\CCC[C@@]2(C)[C@H]1CC[C@@H]2[C@@](C)(O)CCC(F)(F)C(C)C [compound 23]	57.1	–	0.9	69.8 ± 3.1	–	–	11.6 ± 3.1	Km, fold lower than that for 20S(OH)D3 (rat CYP24A1; rat CYP24A1): 3–4 fold
C=C1CC[C@H](O)C/C1=C/C=C1\CCC[C@]2(C)[C@@H](C(C)(O)CC(=O)NC(C)C)CC[C@@H]12 (stereo partly shown) [compound 33]	0	–	1.2	62.8 ± 1.4	–	–	15.4 ± 1.7	catalytic efficiency, fold lower than for 13 (rat CYP24A1; rat CYP24A1): 13 fold; kcat, fold lower than for 1,25(OH)2D3 (rat CYP24A1; rat CYP24A1): approximately 4 fold
